{"source": "patent US6384049B1", "about": "“Cancer treatment” (The Procter & Gamble Company, priority 2000, dated 2002)", "test_system": "HT29, a colon cancer tumor line", "test": "HT29 colon cancer tumor in nude mouse, average tumor weight", "format": "in vivo", "experimental": "Imidazo [4,5-b]pyridine-2-carbamic acid, methyl ester was used to treat HT29, a colon cancer tumor line, in nude mouse. The average tumor weight is reported in mg. The control was the vehicle given twice a week. The imidazo [4,5-b]pyridine-2-carbamic acid, methyl ester was also given on this same schedule. Both compounds were administered by oral gavage.", "data": [{"smiles": "COC(=O)Nc1nc2ncccc2[nH]1", "note": "[pyridinyl, imidazo [4,5-b]pyridine-2-carbamic acid, methyl ester]", "values": [{"measurement": "Average Tumor Weight on Day 1", "setting": "1000 mg/kg p.o. twice a week", "result": 75.4, "unit": "mg"}, {"measurement": "Average Tumor Weight on Day 5", "setting": "1000 mg/kg p.o. twice a week", "result": 97.2, "unit": "mg"}, {"measurement": "Average Tumor Weight on Day 8", "setting": "1000 mg/kg p.o. twice a week", "result": 138.2, "unit": "mg"}, {"measurement": "Average Tumor Weight on Day 11", "setting": "1000 mg/kg p.o. twice a week", "result": 172.1, "unit": "mg"}, {"measurement": "Average Tumor Weight on Day 15", "setting": "1000 mg/kg p.o. twice a week", "result": 220.1, "unit": "mg"}, {"measurement": "Average Tumor Weight on Day 18", "setting": "1000 mg/kg p.o. twice a week", "result": 281.6, "unit": "mg"}, {"measurement": "Average Tumor Weight on Day 23", "setting": "1000 mg/kg p.o. twice a week", "result": 340.6, "unit": "mg"}, {"measurement": "Average Tumor Weight on Day 26", "setting": "1000 mg/kg p.o. twice a week", "result": 407.6, "unit": "mg"}, {"measurement": "Average Tumor Weight on Day 30", "setting": "1000 mg/kg p.o. twice a week", "result": 515.6, "unit": "mg"}, {"measurement": "Average Tumor Weight on Day 33", "setting": "1000 mg/kg p.o. twice a week, day 33", "result": 562, "unit": "mg"}, {"measurement": "Average Tumor Weight on Day 37", "setting": "1000 mg/kg p.o. twice a week, day 37", "result": 828.3, "unit": "mg"}, {"measurement": "Average Tumor Weight on Day 40", "setting": "1000 mg/kg p.o. twice a week, day 40", "result": 533.7, "unit": "mg"}, {"measurement": "Average Tumor Weight on Day 44", "setting": "1000 mg/kg p.o. twice a week, day 44", "result": 714.4, "unit": "mg"}, {"measurement": "Average Tumor Weight on Day 47", "setting": "1000 mg/kg p.o. twice a week, day 47", "result": 656.8, "unit": "mg"}, {"measurement": "Average Tumor Weight on Day 51", "setting": "1000 mg/kg p.o. twice a week, day 51", "result": 763.6, "unit": "mg"}, {"measurement": "Average Tumor Weight on Day 54", "setting": "1000 mg/kg p.o. twice a week, day 54", "result": 793.3, "unit": "mg"}, {"measurement": "Average Tumor Weight on Day 58", "setting": "1000 mg/kg p.o. twice a week, day 58", "result": 919, "unit": "mg"}, {"measurement": "Average Tumor Weight on Day 1", "setting": "2500 mg/kg p.o. twice a week", "result": 76.2, "unit": "mg"}, {"measurement": "Average Tumor Weight on Day 5", "setting": "2500 mg/kg p.o. twice a week", "result": 62.6, "unit": "mg"}, {"measurement": "Average Tumor Weight on Day 8", "setting": "2500 mg/kg p.o. twice a week", "result": 115.2, "unit": "mg"}, {"measurement": "Average Tumor Weight on Day 11", "setting": "2500 mg/kg p.o. twice a week", "result": 101.1, "unit": "mg"}, {"measurement": "Average Tumor Weight on Day 15", "setting": "2500 mg/kg p.o. twice a week", "result": 196, "unit": "mg"}, {"measurement": "Average Tumor Weight on Day 18", "setting": "2500 mg/kg p.o. twice a week", "result": 126, "unit": "mg"}, {"measurement": "Average Tumor Weight on Day 23", "setting": "2500 mg/kg p.o. twice a week", "result": 256, "unit": "mg"}, {"measurement": "Average Tumor Weight on Day 26", "setting": "2500 mg/kg p.o. twice a week", "result": 171.5, "unit": "mg"}, {"measurement": "Average Tumor Weight on Day 1", "setting": "1500 m/kg p.o. twice a week", "result": 76.6, "unit": "mg"}, {"measurement": "Average Tumor Weight on Day 5", "setting": "1500 m/kg p.o. twice a week", "result": 76.1, "unit": "mg"}, {"measurement": "Average Tumor Weight on Day 8", "setting": "1500 m/kg p.o. twice a week", "result": 94.4, "unit": "mg"}, {"measurement": "Average Tumor Weight on Day 11", "setting": "1500 m/kg p.o. twice a week", "result": 130, "unit": "mg"}, {"measurement": "Average Tumor Weight on Day 15", "setting": "1500 m/kg p.o. twice a week", "result": 166.3, "unit": "mg"}, {"measurement": "Average Tumor Weight on Day 18", "setting": "1500 m/kg p.o. twice a week", "result": 189.3, "unit": "mg"}, {"measurement": "Average Tumor Weight on Day 23", "setting": "1500 m/kg p.o. twice a week", "result": 242.3, "unit": "mg"}, {"measurement": "Average Tumor Weight on Day 26", "setting": "1500 m/kg p.o. twice a week", "result": 264, "unit": "mg"}, {"measurement": "Average Tumor Weight on Day 30", "setting": "1500 m/kg p.o. twice a week", "result": 405, "unit": "mg"}]}]}
